Columns and labels:
[1] = cited from earlier work
[2] = in vivo; cited from earlier work
ND-Swiss male mice = experiment: Morris water maze, chronic intranasal NAP; assay type: in vivo, mouse; settings: eight-month-old mice
Method: ND-Swiss male mice (8 months old; Harlan Sprague Dawley, Inc., Indianapolis, Ind.) were kept under a 12:12 hour light/dark regimen, with food and water available at all times. The mice were kept in the animal care facility of the Tel Aviv University in compliance with institutional and state guidelines.
NAP was custom synthesized by Peninsula (Bachem, Torrance, Calif., USA) or Peptide Technologies (Bethesda, Md., USA). The peptide was dissolved in a solution DD, in which each milliliter included 7.5 mg NaCl, 1.7 mg citric acid monohydrate, 3 mg disodium phosphate dihydrate and 0.2 mg benzalkonium chloride solution (50%). The peptide was administered intranasally every day, 5 days a week, 0.5 μg in 10 μl for each mouse, half the portion in each nostril. The control group received 10 μl of the inert carrier per day. The mice were treated at least 1 h prior to the daily experiment (water maze).
Mice were also subjected to two daily tests in a Morris water maze (diameter 90 cm; depth, 20 cm), as described in WO 01/092333, incorporated herein by reference. Latency to reach the hidden platform over a 90 second test period was recorded. The experiment was performed for 4-5 consecutive days. […] The platform was then removed from the maze and the time spent by the mice in the pool's quarter where the platform used to be was recorded (for 90 seconds). […]

[3] = system: astrocytes from newborn rat cerebral cortex; experiment: Confocal microscopy of microtubule re-organization; assay type: cell-based
Method: Rat cerebral cortical cells from newborn pups were prepared as before (Bassan et al., 1999). All procedures performed in these studies were conducted in accordance with the Tel Aviv University regulations and were approved by the Animal Care and Use Committee of Tel Aviv University. The use of animals was not excessive and no animal suffering occurred. In short, cerebral cortical tissue was incubated for 20 minutes at 37° C. in Hanks' balanced salt solution+15 mM HEPES, pH 7.3 containing trypsin B (Biological Industries, Beit Haemek, Israel). Dissociated cerebral cortical cells were added to the culture dish with 5% horse serum in DMEM. Cells were plated in a ratio of 1 cortex per two 75 cm^2 cell culture flasks (polystyrene, Corning, N.Y.). The medium was changed 1 day after plating. For astrocyte cultures, cells were split after 10 incubation days and plated in 24 well plates (each flask into 60 wells containing microscope cover glasses (12 mm diameter) and 250 μl medium). Cells were then incubated two additional weeks. For mixed neuroglial cultures, dissociated cerebral cortical cells were plated on a bed of astrocytes 2 weeks after the split and incubated in neuron-specific medium as before (Bassan et al., 1999; Brenneman, & Gozes, J. Clin. Invest. 97:2299-2307 (1996); based on Forsythe & Westbrook, J. Physiol. 396:515-533 (1988)). […]

Bovine MAP-rich tubulin = experiment: Microtubule assembly, absorbance at 350 nm; assay type: biochemical; settings: negative control peptide, concentration not given
Method: A microtubule assembly kit CytoDYNAMIX Screen 01(CDS01) was obtained from Cytoskeleton (Denver, Colo.). Bovine MAP-rich tubulin (HTS01) was resuspended in G-PEM buffer (80 mM PIPES pH 6.9, 1 mM MgCl, 1 mM EGTA and 1 mM GTP) and subjected to polymerization at 37° C. The reaction was performed in 96-well plate. Assembly was monitored with a spectrophotometer SPECTRAmax 190 (Molecular Devices, Sunnyvale, Calif.) employing continuous recording at 350 nm.

Row | Compound | brain penetration ([1]; following intranasal administration) | crossing of the blood-brain barrier ([1]; radiolabeled peptides, intranasal, intravenous or intraperitoneal administration) | adverse side effects in toxicology studies [2] | time to reach the visible platform (motor behavior) (ND-Swiss male mice) | microtubule re-organization / microtubule-associated morphological change [3] | effect on microtubule assembly (Bovine MAP-rich tubulin)
1 | CC[C@H](C)[C@H](NC(=O)[C@H](CO)NC(=O)[C@@H](NC(=O)[C@@H]1CCCN1C(=O)[C@H](C)NC(=O)[C@@H](N)CC(N)=O)C(C)C)C(=O)N1CCC[C@H]1C(=O)N[C@@H](CCC(N)=O)C(=O)O [NAP] | brain penetration | can cross the blood-brain barrier | no adverse side effects | 24+7.6 |  | 
2 | VLGGGSALL [C2] |  |  |  |  | did not induce | did not affect
